Test results as given in publication PMC11026403 (Communications Biology, 2024).

Biological target: A/Denmark/524/2009 (H1N1)pdm09 NA-H274 (Influenza A virus, UniProt C3W5S3)
Type: biochemical

## CCC(CC)[C@H](NC(C)=O)[C@@H]1[C@H](O)[C@@H](C(=O)O)C[C@H]1N=C(N)N [peramivir]
  IC50: 0.1 nM
